This is an account of results in patent publication US6517866B1 (Pfizer Inc., priority 1997, dated 2003).

Values joined by “and” are separate entries in the source; they are usually repeats but may differ in a detail not shown here. Equal entries are not always repeated. Structures can show the parent of a compound that is named as a salt.

Series [1] in a line: Example 13: screening of excipients that inhibit precipitation or gelation of sertraline lactate when chloride is present. The format is physicochemical. As to conditions: sertraline lactate with excipient.
Series [2] is described as follows: Example 15: sertraline dissolution rate from packed powder in gastric buffer. In kind it is physicochemical.
Experimental: The sample tubes were spun at 14K G for 5 minutes in a microcentrifuge to pack the powder. 150 μl gastric buffer was added to the packed powder and the samples were gently agitated,then spun at 14K G in a microcentrifuge for 2 minutes. The samples were then removed from the microcentrifuge and allowed to stand undisturbed until the solution was removed.
Series [3] in a line: Mechanical properties of compacts (compression, indentation hardness, moduli, tensile strength). The format is physicochemical. Particulars: for Compression Stress / Solid Fraction: Compact Preparation; for Dynamic Indentation Hard. / Reduced Elastic Modulus: Dynamic Indentation; for Tensile Strength: Tensile Fracture.
Experimental: These indices are derived from critical measurements made to assess the mechanical response of the compacts (measurements are not made during the process of compaction).
The most critical material properties that influence powder compaction are its ductility, elasticity and tensile strength. Ductility is determined by pendulum impact and is a dynamic indentation test to determine the hardness of the compact. The hardness of the compound is inversely related to its ductility.
Elasticity values of greater than 8 GPa are high, values between 1-8 GPa are moderate and values less than 1 GPa are low.
Tensile strength is measured by transverse compression of the compacts until it results in tensile fracture. It is desirable to have high tensile strength. Tensile strength of greater than 2 MPa is high, values in the range of 0.8-2.0 Mpa are moderate and values less than 0.8 MPa are low.
Hiestand's ITP is comprised of the following characteristics: brittle fracture index (herein termed BFI), best case bonding index (herein termed bBI), worst case bonding index (herein termed wBI) and strain index (herein termed SI).
The BFI is a measure of the propensity of a compact to break or fragment under stress from existing cracks and holes in the compact. BFI is used by the skilled person to indicate the propensity of a tablet to break or fragment during processing (i.e. failure) such as during ejection from a tablet press or during film coating.
Bonding index is an estimate of the capacity of a compact to retain interparticulate bonds during elastic recovery. […] The estimate of plastic deformation is used in calculating the bonding index. The estimation of bonding index is important since decompression is a major step in the manufacture of tablets. The worst case bonding index (wBI) and best case bonding index (bBI) assess the ability of the interparticulate bonds that have been formed during compression to survive the release of strain energy during compression. Under conditions of high speed manufacture of tablets wBI is more applicable than bBI. Bonding index values of greater than or equal 2 are excellent; values between 0.8-1.9 are good; values between 0.3-0.7 are marginal and values less than 0.3 are poor.
The strain index is a measure of the elastic recovery of the compact. It can also be stated to be a measure of be extent of elastic recovery during the unloading phase.
Series [4] can be described thus: Example 10: solubility of sertraline hydrochloride in organic acid solutions. Particulars: water (no acid excipient), thermodynamic from solid.
The test system of series [5] is healthy male human subjects. The series can be described thus: Example 1: side effect visual analogue scales and emesis. Particulars: 15 hr divided dose regimen (15 subjects). In kind it is in vivo.
Experimental: (§1) In a double-blind, randomized, placebo-controlled parallel group study, healthy male human subjects were divided into three groups. […] The tablets were administered with 50 ml water. […] Group B also received two placebo tablets at the fist dosing time. Group C, referred to as the “placebo group”, received placebo tablets and placebo solutions at the appropriate corresponding time points. All subjects were dosed after an overnight fast.
Prior to dosing and to each blood sampling time, each subject filled out a questionnaire, which consisted of a series of “Visual Analogue Scales” in which the subject was required to rate, on a scale of 0-10, the severity of certain potential side effects. The subjects were instructed that “0” indicated an absent effect and “10” indicated the worst possible effect.
Analysis of side effect visual-analogue-scale data was carried out as follows. […] The non-gastrointestinal side effects dizziness and tremor were also evaluated.
Series [6] can be described thus: Example 2: plasma sertraline pharmacokinetics, 200 mg bolus vs 7 hr divided dosing. In kind it is in vivo. As to conditions: male, human, oral, mean.
Experimental: (§2) In a double-blind, randomized, placebo controlled parallel group study, healthy male human subjects were divided into three groups. […] The tablets were administered with 50 ml water. Group A also received a 50 ml placebo solution every hr for 7 hr. The placebo solution contained lactose and menthol. […] Group B also received two placebo tablets at the fist dosing time. Group C (n=15) received placebo tablets and placebo solutions at the appropriate time points. All subjects were dosed after an overnight fast.
Series [7] can be described thus: Example 1: plasma sertraline pharmacokinetics, 200 mg bolus vs 15 hr divided dosing. Particulars: male, human, oral. The format is in vivo.
Experimental: as §1
Tmax is the time at which Cmax is achieved.
Series [8] has as its system healthy male human subjects. The series can be described thus: Example 2: side effect visual analogue scales and emesis. In kind it is in vivo. Particulars: 200 mg bolus dose group (n=14).
Experimental: as §2
For three side effects evaluated at 30 time points, a total of 4,500 individual visual-analogue-scale evaluations were obtained.
Series [9] deals with healthy male human subjects. As to conditions: Study I.
Experimental: In a subset of a larger double-blind, randomized, placebo-controlled parallel group study, healthy male human subjects were divided into two groups (Study I). […] The tablets were administered with 50 ml water. Group B received two placebo tablets. All subjects were dosed after an overnight fast.
The subjects were instructed that “0” indicated an absent effect and “10” indicated the worst possible effect. The subjects were instructed to interpolate between 0 and 10 for moderate side effects.
A total of 30 subjects completed Study I: 15 each in Groups A and B. For each side effect evaluated at 30 time points, a total of 900 individual visual-analogue-scale evaluations were obtained.
In series [10] the test system is healthy male human subjects. The series can be described thus: Example 6 Study II: emesis, regurgitation and PK/PD plots.

`O=C1O[C@H]([C@@H](O)CO)C(O)=C1O` [Ascorbic acid]: the “Observation After NaCl Addition” value in [1] (NaCl 100 mM) was “precipitate”.
`CCCCCCCCCCCCCCCC(=O)OC[C@H](O)[C@H]1OC(=O)C(O)=C1O` [Ascorbyl palmitate]: in series [2] (excipient 6.8, no acid, lactose 74.2, lactate 19 wt %), the “Sertraline Dissolution Rate” value was 4.3 mg/ml-min.
As to `N[C@@H](Cc1c[nH]cn1)C(=O)O` [Histidine], in series [1] (NaCl 150 mM), the “Final Sertraline Concentration” value was 110 mg/mL and the “Observation After NaCl Addition” value is “slight precipitate”.
In the case of `CCCCCCCCCCCCCCCCCC(=O)OCC(O)CO` (stereo not shown) [Imwitor ® 191, Glyceryl Monostearate], in series [2] (excipient 5.0, ascorbic 49.5, lactose 12.5, CaCO3 1.0, lactate 14 wt %), the “Sertraline Dissolution Rate” value worked out at 8.0 mg/ml-min.
Turning to `CCCCCCCCCCCC(=O)OCC(O)CO` (stereo not shown) [Imwitor ® 312, Glyceryl Monolaurate], the “Sertraline Dissolution Rate” value in [2] (excipient 5.0, ascorbic 49.5, lactose 12.5, CaCO3 5, lactate 14 wt %) is 20.9 mg/ml-min; in series [2] (excipient 6.8, aspartic 74.2, lactate 19 wt %), 5.3 mg/ml-min.
Take `CCCCCCCC/C=C\CCCCCCCC(=O)OCC(O)CO` (stereo not shown) [Myrerol ® (18-99), Glyceryl Monooleate]: in series [2] (excipient 5.0, ascorbic 49.5, lactose 12.5, lactate 14 wt %), the “Sertraline Dissolution Rate” value was found to be 6.4 mg/ml-min.
As to `CN[C@H]1CC[C@@H](c2ccc(Cl)c(Cl)c2)c2ccccc21.C[C@H](O)C(=O)O` [Sertraline L-lactate], in series [3], the “tensile strength (in words)” value is given as “very high”, the “Compression Stress” value is 52.8 (0.7) Mpa, the “Solid Fraction” value came out at 0.862 and the “Dynamic Indentation Hard.” value is recorded as 81.6 (1.6) Mpa. In series [3], the “Reduced Elastic Modulus” value was 7.4 (0.6) GPa and the “Tensile Strength” value is 0.56 (0.02) Mpa. For the same compound, in series [3] (Quasistatic Indentation), the “Elastic Modulus” value was 2.0 (0.2) Gpa, the “Quasistatic Indentation Hard.” value is 31.1 (1.4) Mpa and the “Shear Modulus” value is listed as 113.9 (4.6) Mpa. Moreover, in series [2] (no candidate excipient, ascorbic 51.0, lactose 20, lactate 14 wt %), the “Sertraline Dissolution Rate” value is 3.5 mg/ml-min. Also, the “Sertraline Dissolution Rate” value in [2] (sertraline lactate 100 wt %, no excipient) turned out to be 0.9 mg/ml-min.
`CN[C@H]1CC[C@@H](c2ccc(Cl)c(Cl)c2)c2ccccc21` [Sertraline hydrochloride]: the solubility (as a rule, how much of the substance goes into solution per volume) in series [4] was found to be 25 mg/mL.
`CN[C@H]1CC[C@@H](c2ccc(Cl)c(Cl)c2)c2ccccc21` [Sertraline]: the emetic episodes entry in [5] was “no emetic episodes”. Besides, the Tmax (in general, the time from dosing to the highest level) in [6] (25 mg per hr for 7 hr) was 10.4 h. Further, the Cmax (usually the maximum level reached in the sampled fluid or tissue) in series [6] (25 mg solution per hr for 7 hr (eight doses, 200 mg)) was determined as 46 ng/mL. Further, in series [7], the Cmax worked out at 32 ng/mL and the time to peak (Tmax) was 16 h. This compound also came in with an emetic events in series [8] of 4. Moreover, in series [9] (200 mg bolus dose), the “PK/PD plot of average nausea score vs plasma sertraline concentration (FIG. 6)” value was “clockwise hysteresis” and the “diarrhea score vs plasma sertraline concentration curve” value was “clockwise hysteresis”. The “time of maximum diarrhea score” value in series [9] (post-dose) stood at 3 h. Besides, in series [10] (200 mg dose group), the “subjects who exhibited regurgitation” value was “four”; the subjects with emesis result is given as “Four”; the “time of emesis in individual subjects” value was 2.6 h and 2.8 h and 3.8 h. Also, in series [10] (the four subjects with regurgitation), the “individual PK/PD plots for regurgitation” value is reported as “clockwise hysteresis”.
Consider Sertraline acetate, for which, in series [3], the “elastic modulus (in words)” value is “relatively low”, the “Compression Stress” value was 36.7 (2.5) Mpa, the “Solid Fraction” value is reported as 0.831 and the “Dynamic Indentation Hard.” value is given as 60.0 (0.4) Mpa. Further, in series [3], the “Reduced Elastic Modulus” value is reported as 5.1 (0.5) GPa and the “Tensile Strength” value is reported as 0.52 (0.03) Mpa. In addition, in series [3] (Quasistatic Indentation), the “Quasistatic Indentation Hard.” value is 25.1 (1.3) Mpa and the “Shear Modulus” value is 99.9 (19.1) Mpa. In series [3] (from dynamic indentation hardness), the “ductility (in words)” value was “high (dynamic indentation hardness values below 100 Mpa are high)”.
Span ® 60: the “Sertraline Dissolution Rate” value in series [2] (Span 60 5.0, ascorbic 51.0, lactose 15, lactate 14 wt %) is given as 9.5 mg/ml-min.
